Results on 24 compounds are retold here after patent US8304577B2, “Modulators of G protein-coupled receptor 88” (Bristol-Myers Squibb Company, priority 2009, dated 2012).

Broadly, the EC50 is the concentration at which the effect is half-maximal.

The target of one experiment is G protein-coupled receptor 88 (GPR88) (Homo sapiens, UniProt Q9GZN0). Description: GPR88 functional assay: EC50 of Table 2 (GTPγS assay and cAMP HTRF assay described; table does not say which). It is filed as cell-based. The note with it: class symbol; read-out: Range (EC50). The protocol: 96 well GTPγS assay plates were purchased from Perkin Elmer. Wheat Germ Agglutinin PVT SPA beads and ^35S-GTPγS were purchased from Amersham GDP, GTPγS and all buffer reagents were from Sigma. 384 well white NBS plates were purchased from corning. Pertussis toxin was purchased from Calbiochem. All cell culture reagents were purchased from Invitrogen. Forskolin was purchased from Sigma. The cAMP HTRF kit was purchased fron Cisbio International.
Sequence of G protein-coupled receptor 88 (GPR88) (Q9GZN0 whole entry, species assumed): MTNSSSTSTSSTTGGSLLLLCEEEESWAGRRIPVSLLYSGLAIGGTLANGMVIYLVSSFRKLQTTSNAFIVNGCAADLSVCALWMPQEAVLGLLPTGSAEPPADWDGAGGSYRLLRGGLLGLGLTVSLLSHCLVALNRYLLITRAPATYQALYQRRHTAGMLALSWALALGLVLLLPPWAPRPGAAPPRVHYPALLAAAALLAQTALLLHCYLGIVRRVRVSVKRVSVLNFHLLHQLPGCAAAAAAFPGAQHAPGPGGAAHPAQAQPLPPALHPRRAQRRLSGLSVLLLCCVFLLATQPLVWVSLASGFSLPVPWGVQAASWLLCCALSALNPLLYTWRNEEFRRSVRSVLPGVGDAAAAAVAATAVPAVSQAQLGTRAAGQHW
The GTPγS assay buffer consisted of 10 mM MgCl2, 180 mM NaCl, 200 uM GDP, 0.167 mg/mL DTT, 1 mM EGTA and 20 mM HEPES pH7.4. This buffer was used for dilution of membranes, beads, and ^35S GTPγS components. To each well of the 96 well assay plate 48 ul assay buffer, 2 ul of 100× compound, 50 ul membrane solution (0.2 ug/ul), 50 ul ^35S GTPγS solution (0.8 nM) and 50 ul of SPA beads (10 mg/mL). Non-specific binding was determined by the addition of cold GTPγS to control wells. The plates were sealed with clear sealing tape and incubated at room temperature for 1 hour. GTPγS activity was detected using a Wallac Micro-Beta Trilux liquid scintillation counter. Non-specific binding was determined using 10 uM cold GTPγS.
The cAMP HTRF assay is modified from the Cisbio International kit procedure 62AM4PEJ. Assay plates were prepared by stamping 0.1 ul of 100× compound stock solutions diluted in DMSO or DMSO alone into 384 well NBS plates. The cAMP HTRF assay was performed using cells in suspension. The cAMP HTRF assay buffer consisted of Hank's Balanced Salt Solution (HBSS), 2 mM CaCl2, 5 mM MgCl2, 20 mM HEPES and 1 mM 3-isobutyl-1-methylxanthine (IBMX) (added fresh at the time of assay). For pertussis toxin treatment pertussis toxin (100 ng/mL) was added to culture medium for 16 hours prior to assay. Confluent cells were disrupted with cell dissociation buffer count cells then centrifuged at 1000×g for 5 minutes. The cell pellet was resuspended in assay buffer alone for basal cAMP measurements or with 0.75 uM forskolin (added immediately prior to addition to wells) for addition to all other wells. Using a Multidrop 384 (Lab systems) 10 ul of cell suspension was added to each well containing compound or DMSO. The plates were incubated at room temperature for 30 minutes covered. During this time the cAMP standard curve was prepared as per manufacturer's instruction. At the end of the incubation 10 ul of anti-cAMP cryptate and 10 ul cAMP-XL, diluted in manufacturer's lysis buffer, were added to each well. The plated were incubated at room temperature for 60 minutes covered then read on an Envision plate reader (Perkin Elmer) and the 665 nm/620 nm fluorescence ratio determined Fluorescence ratio values were converted to molar cAMP concentrations from the standard curve using the GraphPad Prism program.
As to `CCCC(C)COc1ccc(C(CN2CCN(C)CC2)NC(=O)[C@@H](C)c2ccccc2)cc1` (mixture of isomers) [Example 36, (2S)-N-(1-(4-(2-Methylpentyloxy)phenyl)-2-(4-methylpiperazin-1-yl)ethyl)-2-phenylpropanamide], the half-maximal effective concentration (EC50) was 0.1 to 0.2 µM.

As to `CCCC(C)COc1ccc([C@H](CO)NC(=O)[C@@H](CC)c2ccccc2)cc1` (stereo partly drawn) [Example 2, (2S)-N-((1R)-2-Hydroxy-1-(4-(2-methylpentyloxy)phenyl)ethyl)-2-phenylbutanamide], the EC50 is 0.1 to 0.2 µM. Turning to `CCCC(C)COc1ccc([C@H](CO)NC(=O)[C@@H](CO)c2ccccc2)cc1` (stereo partly drawn) [Example 3, (2R)-3-Hydroxy-N-((1R)-2-hydroxy-1-(4-(2-methylpentyloxy)phenyl)ethyl)-2-phenylpropanamide], the EC50 is 0.1 to 0.2 µM. Still for that read-out and setting: with `CCCC(C)COc1ccc([C@H](CN(C)C)NC(=O)[C@@H](C)c2ccccc2)cc1` (stereo partly drawn) [Example 6, (2S)-N-((1R)-2-(Dimethylamino)-1-(4-(2-methylpentyloxy)phenyl)ethyl)-2-phenylpropanamide] the figure was 0.039 to 0.099 µM; with `CCCC(C)COc1ccc([C@H](CNCC2CC2)NC(=O)[C@@H](C)c2ccccc2)cc1` (stereo partly drawn) [Example 7, (2S)-N-((1R)-2-(Cyclopropylmethylamino)-1-(4-(2-methylpentyloxy)phenyl)ethyl)-2-phenylpropanamide], 0.039 to 0.099 µM; with `CCCC(C)COc1ccc([C@H](CNCC(C)CC)NC(=O)[C@@H](C)c2ccccc2)cc1` (stereo partly drawn) [Example 8, (2S)-N-((1R)-2-(2-Methylbutylamino)-1-(4-(2-methylpentyloxy)phenyl)ethyl)-2-phenylpropanamide], 0.1 to 0.2 µM. On to `CCCC(C)COc1ccc([C@H](CNCc2ccncc2)NC(=O)[C@@H](C)c2ccccc2)cc1` (stereo partly drawn) [Example 9, (2S)-N-((1R)-1-(4-(2-Methylpentyloxy)phenyl)-2-(pyridin-4-ylmethylamino)ethyl)-2-phenylpropanamide], for which the EC50 lay in the range of 0.1 to 0.2 µM. Same read-out and setting: with `CCCC(C)COc1ccc([C@H](CNCc2cc[nH]n2)NC(=O)[C@@H](C)c2ccccc2)cc1` (stereo partly drawn) [Example 11, (2S)-N-((1R)-2-((1H-Pyrazol-3-yl)methylamino)-1-(4-(2-methylpentyloxy)phenyl)ethyl)-2-phenylpropanamide] the figure was 0.1 to 0.2 µM; with `CCCC(C)COc1ccc([C@H](CNCc2c[nH]c3ccccc23)NC(=O)[C@@H](C)c2ccccc2)cc1` (stereo partly drawn) [Example 12, (2S)-N-((1R)-2-((1H-Indol-3-yl)methylamino)-1-(4-(2-methylpentyloxy)phenyl)ethyl)-2-phenylpropanamide], 0.1 to 0.2 µM. Regarding `CCCC(C)COc1ccc([C@H](CNCc2cccnc2)NC(=O)[C@@H](C)c2ccccc2)cc1` (stereo partly drawn) [Example 13, (2S)-N-((1R)-1-(4-(2-Methylpentyloxy)phenyl)-2-(pyridin-3-ylmethylamino)ethyl)-2-phenylpropanamide], the EC50 was 0.1 to 0.2 µM.

Regarding `CCCC(C)COc1ccc([C@H](CNCC2CCOC2)NC(=O)[C@@H](C)c2ccccc2)cc1` (stereo partly drawn) [Example 14, (2S)-N-((1R)-1-(4-(2-Methylpentyloxy)phenyl)-2-((tetrahydrofuran-3-yl)methylamino)ethyl)-2-phenylpropanamide], the EC50 was in the range of 0.1 to 0.2 µM. Same read-out and setting: next, `CCCC(C)COc1ccc([C@H](CNCC2(N)CCCC2)NC(=O)[C@@H](C)c2ccccc2)cc1` (stereo partly drawn) [Example 15, (2S)-N-((1R)-2-((1-Aminocyclopentyl)methylamino)-1-(4-(2-methylpentyloxy)phenyl)ethyl)-2-phenylpropanamide]: 0.039 to 0.099 µM; `CCCC(C)COc1ccc([C@H](CNC[C@H](C)N)NC(=O)[C@@H](C)c2ccccc2)cc1` (stereo partly drawn) [Example 17, (2S)-N-((1R)-2-((S)-2-Aminopropylamino)-1-(4-(2-methylpentyloxy)phenyl)ethyl)-2-phenylpropanamide]: 0.1 to 0.2 µM. On the same count and under the same terms, next, `CCCC(C)COc1ccc([C@H](CNC(=O)[C@@H](N)[C@@H](C)CC)NC(=O)[C@@H](C)c2ccccc2)cc1` (stereo partly drawn) [Example 19, (2S,3S)-2-Amino-3-methyl-N-((2R)-2-(4-(2-methylpentyloxy)phenyl)-2-((S)-2-phenylpropanamido)ethyl)pentanamide]: 0.039 to 0.099 µM; `CCCC(C)COc1ccc([C@H](CNC(=O)[C@H](N)CC(C)C)NC(=O)[C@@H](C)c2ccccc2)cc1` (stereo partly drawn) [Example 20, (2R)-2-Amino-4-methyl-N-((2R)-2-(4-(2-methylpentyloxy)phenyl)-2-((S)-2-phenylpropanamido)ethyl)pentanamide]: 0.039 to 0.099 µM; `CCCC(C)COc1ccc([C@H](CNC(=O)[C@H](N)[C@H](C)CC)NC(=O)[C@@H](C)c2ccccc2)cc1` (stereo partly drawn) [Example 22, (2R,3R)-2-Amino-3-methyl-N-((2R)-2-(4-(2-methylpentyloxy)phenyl)-2-((S)-2-phenylpropanamido)ethyl)pentanamide]: 0.039 to 0.099 µM.

For the compound `CCCC(C)COc1ccc([C@H](CNC(=O)[C@H](C)N)NC(=O)[C@@H](C)c2ccccc2)cc1` (stereo partly drawn) [Example 23, (2S)-2-Amino-N-((2R)-2-(4-(2-methylpentyloxy)phenyl)-2-((S)-2-phenylpropanamido)ethyl)propanamide], the EC50 was in the range of 0.039 to 0.099 µM.

`CCCC(C)COc1ccc([C@H](CNC(=O)[C@@H](N)C(C)C)NC(=O)[C@@H](C)c2ccccc2)cc1` (stereo partly drawn) [Example 24, (2S)-2-Amino-3-methyl-N-((2R)-2-(4-(2-methylpentyloxy)phenyl)-2-((S)-2-phenylpropanamido)ethyl)butanamide]: the EC50 was 0.039 to 0.099 µM. As to `CCCC(C)COc1ccc([C@H](CNC(=O)[C@@H](N)CC)NC(=O)[C@@H](C)c2ccccc2)cc1` (stereo partly drawn) [Example 25, (2S)-2-Amino-N-((2R)-2-(4-(2-methylpentyloxy)phenyl)-2-((S)-2-phenylpropanamido)ethyl)butanamide], the EC50 is 0.039 to 0.099 µM.

The same experiment, now with this note: exact value given; read-out: Range (EC50).
Regarding `CCCC(C)COc1ccc([C@H](CN)NC(=O)[C@@H](C)c2ccccc2)cc1` (stereo partly drawn) [Example 5, (2S)-N-((1R)-2-Amino-1-(4-(2-methylpentyloxy)phenyl)ethyl)-2-phenylpropanamide], the EC50 was found to be 0.054 µM.

Consider `CCCC(C)COc1ccc([C@H](CNCc2ccccn2)NC(=O)[C@@H](C)c2ccccc2)cc1` (stereo partly drawn) [Example 10, (2S)-N-((1R)-1-(4-(2-Methylpentyloxy)phenyl)-2-(pyridin-2-ylmethylamino)ethyl)-2-phenylpropanamide], for which the EC50 was 0.11 µM.

As to `CCCC(C)COc1ccc([C@H](CNC[C@@H]2CCCN2)NC(=O)[C@@H](C)c2ccccc2)cc1` (stereo partly drawn) [Example 16, (2S)-N-((1R)-1-(4-(2-Methylpentyloxy)phenyl)-2-((S)-pyrrolidin-2-ylmethylamino)ethyl)-2-phenylpropanamide], the EC50 was 0.1 µM. On the same count and under the same terms, with `CCCC(C)COc1ccc([C@H](CNC[C@H]2CCCN2)NC(=O)[C@@H](C)c2ccccc2)cc1` (stereo partly drawn) [Example 18, (2S)-N-((1R)-1-(4-(2-Methylpentyloxy)phenyl)-2-((R)-pyrrolidin-2-ylmethylamino)ethyl)-2-phenylpropanamide] the figure was 0.154 µM. On to `CCCC(C)COc1ccc([C@H](CNC(=O)[C@@H]2CCCN2)NC(=O)[C@@H](C)c2ccccc2)cc1` (stereo partly drawn) [Example 21, (2S)-N-((2R)-2-(4-(2-Methylpentyloxy)phenyl)-2-((S)-2-phenylpropanamido)ethyl)pyrrolidine-2-carboxamide], for which the EC50 turned out to be 0.089 µM.
